US20110039762A1, “TARGETED ANTIMICROBIAL MOIETIES” (C3 JIAN, INC., priority 2009, published 2011)
Entries after “also recorded” stand apart in the source; their conditions may differ. Ends that are not written are not given here.

Columns and labels:
[1] = test system: microorganisms (e.g., bacteria, yeasts, fungi); assay: Targeting peptide binding to target microorganisms (Table 3); conditions: preferably 1x PBS; for Target(s): microorganism(s) the targeting peptide binds
[2] = test system: B. subtilis; assay: MIC (broth microdilution); format: cell-based, Bacillus subtilis
Protocol: (§1) Typically, the in vitro antimicrobial activity of antimicrobial agents is tested using standard NCCLS bacterial inhibition assays, or MIC tests (see, National Committee on Clinical Laboratory Standards “Performance Standards for Antimicrobial Susceptibility Testing,” NCCLS Document M100-S5 Vol. 14, No. 16, December 1994; “Methods for dilution antimicrobial susceptibility test for bacteria that grow aerobically-Third Edition,” Approved Standard M7-A3, National Committee for Clinical Standards, Villanova, Pa.).
(§2) Briefly, ˜1×10^5 cfu/mL bacteria were diluted in TH (S. mutans), or Mueller-Hinton (MH) broth (all other organisms) and distributed to 96-well plates. Serially-diluted (2-fold) peptides were then added and the plates incubated at 37° C. for 18-24 h. […] All experiments were conducted 10 times.

[3] = test system: B. subtilis; assay: Kill or inhibit growth/proliferation; morphology, biofilm and growth disruption (Tables 5, 6); format: cell-based, Bacillus subtilis; set-up: key: A: Peptide aggregates; B: Less hyphal formation; Clumps; Diffuse clumps and small polyps; F: Diffuse growth; H: Thin; I: Growth inhibition; Microcolony formation; Rippled; Small polyps; Thick; W: Halo formation on top, microlonies on bottom; note: test concentration or dose not given here
[4] = test system: S. epidermidis; format: cell-based, Staphylococcus epidermidis; conditions: S. epidermidis
Protocol: as §1, §2

[5] = test system: S. epidermidis; assay: Kill or inhibit growth/proliferation; morphology, biofilm and growth disruption (Tables 5, 6); format: cell-based, Staphylococcus epidermidis; set-up: key: A: Peptide aggregates; B: Less hyphal formation; Clumps; Diffuse clumps and small polyps; F: Diffuse growth; H: Thin; I: Growth inhibition; Microcolony formation; Rippled; Small polyps; Thick; W: Halo formation on top, microlonies on bottom; note: test concentration or dose not given here
[6] = test system: microorganisms; assay: Peptides having multiple activities (targeting/binding, antimicrobial, growth or phenotype altering)
Text: In certain embodiments, peptides described herein can have multiple activities. Thus for example, a peptide can have both binding/targeting activity and antimicrobial activity. Such peptides can be used, e.g., in a chimeric construct, for any or all of these properties. Thus, for example, a peptide designated “B” in Table 8 can be used as a targeting peptide. If it is also designated G or M it can also be used for antimicrobial activity.

[7] = test system: T. rubrum; assay: MIC (broth microdilution); format: cell-based, Trichophyton rubrum
Protocol: as §1, §2

[8] = test system: MRSA; assay: Kill or inhibit growth/proliferation; morphology, biofilm and growth disruption (Tables 5, 6); format: cell-based, Methicillin-resistant Staphylococcus aureus; set-up: key: A: Peptide aggregates; B: Less hyphal formation; Clumps; Diffuse clumps and small polyps; F: Diffuse growth; H: Thin; I: Growth inhibition; Microcolony formation; Rippled; Small polyps; Thick; W: Halo formation on top, microlonies on bottom; note: test concentration or dose not given here
[9] = test system: S. mutans; assay: as above; format: cell-based, Streptococcus mutans; set-up: key: A: Peptide aggregates; B: Less hyphal formation; Clumps; Diffuse clumps and small polyps; F: Diffuse growth; H: Thin; I: Growth inhibition; Microcolony formation; Rippled; Small polyps; Thick; W: Halo formation on top, microlonies on bottom
[10] = test system: E. coli; assay: as above; format: cell-based, Escherichia coli; set-up: key: A: Peptide aggregates; B: Less hyphal formation; Clumps; Diffuse clumps and small polyps; F: Diffuse growth; H: Thin; I: Growth inhibition; Microcolony formation; Rippled; Small polyps; Thick; W: Halo formation on top, microlonies on bottom; note: test concentration or dose not given here
[11] = test system: S. pneumoniae; assay: as above; format: cell-based, Streptococcus pneumoniae; set-up: key: A: Peptide aggregates; B: Less hyphal formation; Clumps; Diffuse clumps and small polyps; F: Diffuse growth; H: Thin; I: Growth inhibition; Microcolony formation; Rippled; Small polyps; Thick; W: Halo formation on top, microlonies on bottom; note: test concentration or dose not given here
[12] = test system: M. luteus; assay: as above; format: cell-based, Micrococcus luteus; set-up: key: A: Peptide aggregates; B: Less hyphal formation; Clumps; Diffuse clumps and small polyps; F: Diffuse growth; H: Thin; I: Growth inhibition; Microcolony formation; Rippled; Small polyps; Thick; W: Halo formation on top, microlonies on bottom; note: test concentration or dose not given here
[13] = test system: P. mirabilis; assay: as above; format: cell-based; set-up: key: A: Peptide aggregates; B: Less hyphal formation; Clumps; Diffuse clumps and small polyps; F: Diffuse growth; H: Thin; I: Growth inhibition; Microcolony formation; Rippled; Small polyps; Thick; W: Halo formation on top, microlonies on bottom; note: test concentration or dose not given here
[14] = test system: A. niger; assay: MIC (broth microdilution); format: cell-based, Aspergillus niger
Protocol: as §1, §2

[15] = test system: MRSA; assay: MIC (broth microdilution); format: cell-based, Methicillin-resistant Staphylococcus aureus
Protocol: as §1, §2

[16] = test system: P. aeruginosa; assay: Kill or inhibit growth/proliferation; morphology, biofilm and growth disruption (Tables 5, 6); format: cell-based, Pseudomonas aeruginosa; set-up: key: A: Peptide aggregates; B: Less hyphal formation; Clumps; Diffuse clumps and small polyps; F: Diffuse growth; H: Thin; I: Growth inhibition; Microcolony formation; Rippled; Small polyps; Thick; W: Halo formation on top, microlonies on bottom; note: test concentration or dose not given here
[17] = test system: P. gingivalis; assay: as above; format: cell-based, Porphyromonas gingivalis; set-up: key: A: Peptide aggregates; B: Less hyphal formation; Clumps; Diffuse clumps and small polyps; F: Diffuse growth; H: Thin; I: Growth inhibition; Microcolony formation; Rippled; Small polyps; Thick; W: Halo formation on top, microlonies on bottom; note: test concentration or dose not given here
[18] = test system: F. nucleatum; assay: as above; format: cell-based, Fusobacterium nucleatum; set-up: key: A: Peptide aggregates; B: Less hyphal formation; Clumps; Diffuse clumps and small polyps; F: Diffuse growth; H: Thin; I: Growth inhibition; Microcolony formation; Rippled; Small polyps; Thick; W: Halo formation on top, microlonies on bottom; note: test concentration or dose not given here
[19] = test system: E. faecalis; assay: as above; format: cell-based, Enterococcus faecalis; set-up: key: A: Peptide aggregates; B: Less hyphal formation; Clumps; Diffuse clumps and small polyps; F: Diffuse growth; H: Thin; I: Growth inhibition; Microcolony formation; Rippled; Small polyps; Thick; W: Halo formation on top, microlonies on bottom; note: test concentration or dose not given here
[20] = test system: S. mutans; format: cell-based, Streptococcus mutans; conditions: S. mutans; for Organism, effect (morphology, biofilm and growth disruption): test concentration or dose not given here; for Organism, effect: test concentration or dose not given here
Protocol: as §1, §2

[21] = binding in aqueous buffers depending on peptide solubility

Row | Substance | Organism, effect [5] | Activities [6] | MIC [7] | Organism, effect [8] | Organism, effect [9] | Organism, effect [10] | Organism, effect [11] | Organism, effect [12] | Organism, effect [13] | other results
1 | MIRIRSPTKKKLNRNSISDWKSNTSGRFFY [PF-283] | S. epidermidis (H) | G B M | T. rubrum, 50 μM |  |  |  |  |  |  | Target(s) [1, 21]: B. subtilis; also recorded: B. fragilis; also recorded: C. difficile; MIC [2]: B. subtilis, 50 μM; Organism, effect [3]: B. subtilis (H); MIC [4]: S. epidermidis, 50 μM
2 | PF-578: peptide having multiple activities (chain 1 QKANLRIGFTYTSDSNVCNLTFALLGSK; chain 2 QKANLRIGFTYTSDSNVCNLTFALLGSK; Peptide with targeting and/or antimicrobial activity) | S. epidermidis (D) | G B |  | MRSA (C) | S. mutans (D) | E. coli (C) | S. pneumoniae (D) | M. luteus (C) | P. mirabilis (C) | 
3 | PF-624 (VFLLDSYCFVKINL; Peptide with targeting and/or antimicrobial activity) | S. epidermidis (D) |  |  | MRSA (C) | S. mutans (D) | E. coli (C) | S. pneumoniae (D) | M. luteus (C) | P. mirabilis (C) | 
4 | PF-612: peptide having multiple activities (GTTLKYGLERQLKIDIHPEITIINLNGGADEFAKL; Peptide with targeting and/or antimicrobial activity) | S. epidermidis (C) | G B |  | MRSA (C) | S. mutans (F) | E. coli (C) | S. pneumoniae (C) | M. luteus (A) | P. mirabilis (C) | 
5 | VLPFPAIPLSRRRACVAAPRPRSRQRAS [PF-168] |  | G B M | T. rubrum, 50 μM | MRSA (I) |  |  |  |  |  | Target(s) [1, 21]: S. epidermidis and M. luteus and E. coli and C. albicans and MRSA and C. jeikeium and C. jejuni; MIC [14]: A. niger, 50 μM; MIC [15]: MRSA , 50 μM; Organism, effect [16]: P. aeruginosa (H)
6 | PF-770: peptide having multiple activities (GVGIGFIMMGVVGYAVKLVHIPIRYLIV; Peptide with targeting and/or antimicrobial activity) |  | G B |  |  |  |  |  |  |  | Organism, effect (morphology, biofilm and growth disruption) [8]: MRSA (D); Organism, effect (morphology, biofilm and growth disruption) [9]: S. mutans (D); Organism, effect (morphology, biofilm and growth disruption) [10]: E. coli (C); Organism, effect (morphology, biofilm and growth disruption) [11]: S. pneumoniae (C); Organism, effect (morphology, biofilm and growth disruption) [12]: M. luteus (C); Organism, effect (morphology, biofilm and growth disruption) [13]: P. mirabilis (C); Organism, effect (morphology, biofilm and growth disruption) [5]: S. epidermidis (D)
7 | PF-C075: peptide having multiple activities (KALVISVFAIVFSIIFVKFFYWRDKK; Peptide with targeting and/or antimicrobial activity) |  | G B |  |  |  |  |  |  |  | Organism, effect (morphology, biofilm and growth disruption) [17]: P. gingivalis (R); Organism, effect (morphology, biofilm and growth disruption) [18]: F. nucleatum (T); Organism, effect (morphology, biofilm and growth disruption) [9]: S. mutans (F); Target(s) (microorganisms bound by the targeting peptide) ([1]; peptide binding in aqueous buffers varied by peptide solubility): A. naeslundii; also recorded: F. nucleatum; also recorded: P. gingivalis; also recorded: S. mutans; also recorded: T. denticola
8 | WSRVPGHSDTGWKVWHRW-NH2 [PF-547] | S. epidermidis (R) | G B M | T. rubrum, 25 μM | MRSA (M) |  |  |  |  |  | Organism, effect [19]: E. faecalis (R); MIC [20]: S. mutans, 12.5 μM; Target(s) ([1]; peptide binding conducted in aqueous buffers varied by peptide solubility): S. epidermidis and E. coli and P. aeruginosa and C. albicans and MRSA and S. pneumoniae and E. faecalis; MIC [2]: B. subtilis, 25 μM; Organism, effect [3]: B. subtilis (I)
9 | PF-634: peptide having multiple activities (chain 1 MPKARPVNHNKKKSKITIKSNFTLFYMFNP; chain 2 MPKARPVNHNKKKSKITIKSNFTLFYMFNP; Peptide with targeting and/or antimicrobial activity) | S. epidermidis (D) | G B |  | MRSA (D) | S. mutans (D) | E. coli (C) | S. pneumoniae (D) | M. luteus (C) | P. mirabilis (C) | 
